Assay results published in patent US20210046160A1 (Synthorx, Inc., priority 2019, published 2021).

What was measured:
CTLL-2 = CTLL-2 proliferation; type: cell-based
Treg cells = assay: pSTAT5 concentration-response in human LRS-derived PBMC samples (flow cytometry): Treg cells; type: cell-based; details: ratio of pSTAT5 EC50 values; for CD8+/Treg ratio: Table 12; for CD8/Treg ratio: Table 4
Method: These studies were performed at PrimityBio LLC (Fremont, Calif.). […] Staining panel for flow cytometry study of LRS-derived PBMC samples include markers for Effector T cells (Teff: CD3+, CD4+, CD8+, CD127+), NK cells (CD3-, CD16+), and Regulatory T cells (Treg: CD3+, CD4+, CD8-, IL-2Rα+, CD127-1).
The EC50 values (pg/mL) was calculated from dose response curves generated from MFI plots.
These studies were performed at PrimityBio LLC (Fremont, Calif.). […] Staining panel for flow cytometry study of LRS-derived PBMC samples include markers CD4, CD4+ memory central, CD4+ memory effect, CD4+ memory T cells, CD4+ Naive T cells, CD4+ T cells, CD8, CD8+ memory central, CD8+ memory effect, CD8+ memory T cells, CD8+ Naive T cells, CD8+ T cells, NK cells, and T regulatory cells.
Conjugates of Table 12 were synthesized by modification of SEQ NO. 1. These studies were performed at PrimityBio LLC (Fremont, Calif.).
The EC50 values (pg/ml) were calculated from dose response curves generated from the MFI plots.

[1] = PK study E3826-U1704 in naïve C57BL/6 mice (human IL-2 ELISA of plasma); type: in vivo; details: for AUC0-t / AUCINF / CL / Cmax / Tmax / Vss (distribution volume) / t½: C57BL/6 female mice, single IV bolus 0.3 mg/kg, E62_5 kD from a separate study; for mean plasma concentrations measurable out to (post-dose): single IV bolus, 120 h = last measured time point
Method: Terminal blood samples were collected via cardiac puncture at the points indicated. […] Plasma and blood cells (in both studies) and tumors in study E3826-U1803 were collected for PK and PD analyses.
Bioanalysis of plasma samples was performed using a qualified human IL-2 ELISA assay (Abcam, Cambridge, UK). Concentrations of Aldesleukin, E62_30kD and P65_30kD and the internal standard in samples derived from plasma were determined using an ELISA assay. […] The PK data were imported into Phoenix WinNonlin v6.4 (Certara/Pharsight, Princeton, N.J.) for analysis. The group mean plasma concentration versus time data were analyzed with noncompartmental methods using an IV bolus administration model.

[2] = PK study of K35_30kD in C57BL/6 mice (Example 8); type: in vivo; details: male C57BL/6 mice
Method: The lyophilized test article was reconstituted in PBS, and nine male C57BL/6 mice were dosed with 0.3 and 3 mg/kg via intravenous tail vein injection for each dose group (see collection details below). Blood samples were collected at 0.08, 0.25, 0.5, 1, 2, 4, 8, 12, and 24 hours post dose. […] To adjust for ELISA-specific differences in sensitivity of kit detection of native and PEGylated compounds, native IL-2 and K35_30kD test article standard curves were generated using the test article diluent buffer, and data were analyzed with respect to respective standard curves. The data plotted represent the mean and SEM of three individual samples (biological replicates) as described above, and PK parameters for K35_30 kD test articles were extracted and summarized in Table 14.

D20_30kD: 30 kD PEGylated IL-2 conjugate at D20, made by modification of SEQ NO. 1 [Compound D20_30kD]
EC50, CTLL-2 proliferation (CTLL-2; Table 12): 689939 pg/mL | CD8+/Treg ratio (Treg cells): 8

E62K: IL-2 variant with residue substitution E62K, not PEGylated [Compound E62K]
EC50, CTLL-2 proliferation (CTLL-2; Table 4): 58,213 pg/mL | CD8/Treg ratio (Treg cells): 5.8

E62_5kD: SEQ ID NO: 21: IL-2 (SEQ ID NO: 4) with E62 replaced by AzK conjugated to methoxy linear 5 kDa PEG [Compound E62_5kD]
AUC0-t [1]: 798 ng·h/mL | AUCINF [1]: 807 ng·h/mL | CL [1]: 6.2 mL/min/kg | Cmax [1]: 936 ng/mL | Tmax [1]: 7.98 min | Vss (distribution volume) [1]: 0.404 L/kg | t½ [1]: 2.56 h | mean plasma concentrations measurable out to (post-dose) [1]: 12 h | EC50, CTLL-2 proliferation (CTLL-2; Table 4): 275,590 pg/mL | CD8/Treg ratio (Treg cells): 2.3

E62_30kD: SEQ ID NO: 26: IL-2 (SEQ ID NO: 4) with E62 replaced by AzK conjugated to methoxy linear 30 kDa PEG [Compound E62_30kD]
AUC0-t [1]: 37,100 h*ng/mL | AUCINF [1]: 37,100 h*ng/mL | CL [1]: 0.134 mL/min/kg | Cmax [1]: 4,230 ng/mL | Tmax [1]: 1.8 min | Vss (distribution volume) [1]: 0.0923 L/kg | t½ [1]: 14.500 h | mean plasma concentrations measurable out to (post-dose) [1]: 120 h | EC50, CTLL-2 proliferation (CTLL-2; Table 4): 398,012 pg/mL | CD8/Treg ratio (Treg cells): 1.8

E100_30kD: 30 kD PEGylated IL-2 conjugate at E100, made by modification of SEQ NO. 1 [Compound E100_30kD]
EC50, CTLL-2 proliferation (CTLL-2; Table 12): 1676 pg/mL | CD8+/Treg ratio (Treg cells): 405

H16_30kD: 30 kD PEGylated IL-2 conjugate at H16, made by modification of SEQ NO. 1 [Compound H16_30kD]
EC50, CTLL-2 proliferation (CTLL-2; Table 12): 80755 pg/mL | CD8+/Treg ratio (Treg cells): 345

K9_30kD: 30 kD PEGylated IL-2 conjugate at K9, made by modification of SEQ NO. 1 [Compound K9_30kD]
EC50, CTLL-2 proliferation (CTLL-2; Table 12): 504 pg/mL | CD8+/Treg ratio (Treg cells): 496

K35_30kD: SEQ ID NO: 29: IL-2 (SEQ ID NO: 4) with K35 replaced by AzK conjugated to methoxy linear 30 kDa PEG [Compound K35_30kD]
AUC1/2extrap ([2]; 0.3 mg/kg single IV): 35.3% | AUCo-t/D ([2]; 0.3 mg/kg single IV): 128000 ng·h/mL | AUG0-∞ ([2]; 0.3 mg/kg single IV): 59600 ng·h/mL | Cmax ([2]; 0.3 mg/kg single IV): 6080 ng/mL | Cmax/D ([2]; 0.3 mg/kg single IV): 20300 kg·ng/mL/mg | Tmax ([2]; 0.3 mg/kg single IV): 0.250 h | t1/2 ([2]; 0.3 mg/kg single IV): 18.2 h | AUC1/2extrap ([2]; 3 mg/kg single IV): 37.4% | AUCo-t/D ([2]; 3 mg/kg single IV): 142000 ng·h/mL | AUG0-∞ ([2]; 3 mg/kg single IV): 679000 ng·h/mL | Cmax ([2]; 3 mg/kg single IV): 57700 ng/mL | Cmax/D ([2]; 3 mg/kg single IV): 19200 kg·ng/mL/mg | Tmax ([2]; 3 mg/kg single IV): 0.250 h | t1/2 ([2]; 3 mg/kg single IV): 19.5 h | CD8/Treg ratio (Treg cells): 176.0

L19_30kD: 30 kD PEGylated IL-2 conjugate at L19, made by modification of SEQ NO. 1 [Compound L19_30kD]
EC50, CTLL-2 proliferation (CTLL-2; Table 12): 3510 pg/mL | CD8+/Treg ratio (Treg cells): 241

M23_30kD: 30 kD PEGylated IL-2 conjugate at M23, made by modification of SEQ NO. 1 [Compound M23_30kD]
EC50, CTLL-2 proliferation (CTLL-2; Table 12): 1102 pg/mL | CD8+/Treg ratio (Treg cells): 524

N26_30kD: 30 kD PEGylated IL-2 conjugate at N26, made by modification of SEQ NO. 1 [Compound N26_30kD]
EC50, CTLL-2 proliferation (CTLL-2; Table 12): 2594 pg/mL | CD8+/Treg ratio (Treg cells): 483

N88R/D109_30kD: IL-2 variant N88R with 30 kD PEG at D109, made by modification of SEQ NO. 1
EC50, CTLL-2 proliferation (CTLL-2; Table 12): 59577 pg/mL | CD8+/Treg ratio (Treg cells): 71

N88R: IL-2 variant with substitution N88R [Compound N88R]
EC50, CTLL-2 proliferation (CTLL-2; Table 12): 363 pg/mL | CD8+/Treg ratio (Treg cells): 1356

N88_30kD: 30 kD PEGylated IL-2 conjugate at N88, made by modification of SEQ NO. 1 [Compound N88_30kD]
EC50, CTLL-2 proliferation (CTLL-2; Table 12): 66606 pg/mL | CD8+/Treg ratio (Treg cells): 34

N119_30kD: 30 kD PEGylated IL-2 conjugate at N119, made by modification of SEQ NO. 1 [Compound N119_30kD]
EC50, CTLL-2 proliferation (CTLL-2; Table 12): 1215 pg/mL | CD8+/Treg ratio (Treg cells): 268

P65_5kD: SEQ ID NO: 20: IL-2 (SEQ ID NO: 4) with P65 replaced by AzK conjugated to methoxy linear 5 kDa PEG [Compound P65_5kD]
EC50, CTLL-2 proliferation (CTLL-2; Table 4): 194,924 pg/mL | CD8/Treg ratio (Treg cells): 2.2

Q126_30kD: 30 kD PEGylated IL-2 conjugate at Q126, made by modification of SEQ NO. 1 [Compound Q126_30kD]
EC50, CTLL-2 proliferation (CTLL-2; Table 12): 3584 pg/mL | CD8+/Treg ratio (Treg cells): 670

S127_30kD: 30 kD PEGylated IL-2 conjugate at S127, made by modification of SEQ NO. 1 [Compound S127_30kD]
EC50, CTLL-2 proliferation (CTLL-2; Table 12): 123 pg/mL | CD8+/Treg ratio (Treg cells): 615

T123_30kD: 30 kD PEGylated IL-2 conjugate at T123, made by modification of SEQ NO. 1 [Compound T123_30kD]
EC50, CTLL-2 proliferation (CTLL-2; Table 12): 255 pg/mL | CD8+/Treg ratio (Treg cells): 569

T131_30kD: 30 kD PEGylated IL-2 conjugate at T131, made by modification of SEQ NO. 1 [Compound T131_30kD]
EC50, CTLL-2 proliferation (CTLL-2; Table 12): 641 pg/mL | CD8+/Treg ratio (Treg cells): 515

V91K: IL-2 variant with substitution V91K [Compound V91K]
EC50, CTLL-2 proliferation (CTLL-2; Table 12): 99.5 pg/mL | CD8+/Treg ratio (Treg cells): 720
